Legend:
[1] = system: antibodies in sera from SARS patients (sera 1a, 1b, 2, 6, 37, 62, London, SARS-yellow, SARS-green); format: binding, human; set-up: Binding of serum 6 to linear peptides of protein X1 of SARS-CoV Urbani / Binding of serum 37 to linear peptides of protein X1 of SARS-CoV Urbani / Binding of serum 6 to looped/cyclic peptide (PEPSCAN-ELISA) / Binding of serum 37 to looped/cyclic peptide (PEPSCAN-ELISA) / Binding of serum 37 to looped/cyclic peptides of protein X1 of SARS-CoV Urbani / Binding of serum 6 to linear peptides of protein X2 / Binding of serum 37 to linear peptides of protein X2 / Binding of serum 37 to looped/cyclic peptides of protein X2 of SARS-CoV Urbani / Binding of serum 6 to linear peptides of protein M of SARS-CoV Urbani / Binding of serum 37 to linear peptides of protein M of SARS-CoV Urbani / Binding of serum 6 to looped/cyclic peptides of protein M of SARS-CoV Urbani / Binding of serum 37 to looped/cyclic peptides of protein M of SARS-CoV Urbani / Binding of serum 6 to linear peptides of protein X3 of SARS-CoV Urbani / Binding of serum 37 to linear peptides of protein X3 of SARS-CoV Urbani / Binding of serum 37 to looped/cyclic peptides of protein X3 of SARS-CoV Urbani / Binding of serum 6 to linear peptides of protein X4 of SARS-CoV Urbani / Binding of serum 37 to linear peptides of protein X4 of SARS-CoV Urbani / Binding of serum 37 to looped/cyclic peptides of protein X4 of SARS-CoV Urbani / Binding of serum 6 to linear peptides of protein X5 of SARS-CoV Urbani / Binding of serum 37 to linear peptides of protein X5 of SARS-CoV Urbani / Binding of serum 37 to looped/cyclic peptides of protein X5 of SARS-CoV Urbani / Binding of serum 6 to linear peptides of protein N of SARS-CoV Urbani / Binding of serum 37 to linear peptides of protein N of SARS-CoV Urbani / Binding of serum 6 to linear peptide (PEPSCAN-ELISA) / Binding of serum 1a to looped/cyclic peptides of protein N of SARS-CoV Urbani / Binding of serum 1b to looped/cyclic peptides of protein N of SARS-CoV Urbani / Binding of serum 2 to looped/cyclic peptides of protein N of SARS-CoV Urbani / Binding of serum 6 to looped/cyclic peptides of protein N of SARS-CoV Urbani / Binding of serum 37 to looped/cyclic peptides of protein N of SARS-CoV Urbani / Binding of serum 62 to looped/cyclic peptides of protein N of SARS-CoV Urbani / Binding of serum London to looped/cyclic peptides of protein N of SARS-CoV Urbani / Binding of serum SARS-green to looped/cyclic peptides of protein N of SARS-CoV Urbani: unit not given here
[2] = system: control sera (pooled serum of ten healthy LUMC hospital workers; commercial negative donor pooled serum from the Dutch bloodbank); format: binding, human; set-up: Binding of Control serum LUMC to linear peptides / Binding of Control serum Blood-bank to linear peptides / Binding of Control serum LUMC to looped peptides / Binding of Control Serum Blood-Bank to Looped peptides / Binding of Control serum LUMC to linear peptides of the protein M of SARS-CoV Urbani / Binding of Control serum Blood-bank to linear peptides of the protein M of SARS-CoV Urbani / Binding of Control serum LUMC to looped peptides of the protein M of SARS-CoV Urbani / Binding of Control Serum Blood-Bank to Looped peptides of the protein M of SARS-CoV Urbani: unit not given here
[3] = system: rabbit serum obtained by immunizing a rabbit with the SARS-CoV strain Frankfurt 1; format: binding; set-up: Binding of a rabbit serum to linear peptides / Binding of a rabbit serum to looped peptides / Rabbit serum linear peptides / Rabbit serum looped peptides / Binding of a rabbit serum to linear peptides of protein N of SARS-CoV Urbani (Rabbit serum linear peptides) / Binding of a rabbit serum to looped/cyclic peptides of protein N of SARS-CoV Urbani (Rabbit serum looped peptides): unit not given here

## ATIPLQASLPFGWLV
[1]
  Binding of serum 1a to linear peptides of protein X1 of SARS-CoV Urbani: 0.7
  Binding of serum 1a to looped/cyclic peptide (PEPSCAN-ELISA): 0.6
  Binding of serum 1b to linear peptides of protein X1 of SARS-CoV Urbani: 0.5
  Binding of serum 1b to looped/cyclic peptide (PEPSCAN-ELISA): 0.5
  Binding of serum 2 to linear peptides of protein X1 of SARS-CoV Urbani: 0.6
  Binding of serum 2 to looped/cyclic peptide (PEPSCAN-ELISA): 0.6
  Binding of serum 6 to linear peptides of protein X1 of SARS-CoV Urbani: 0.6
  Binding of serum 6 to looped/cyclic peptide (PEPSCAN-ELISA): 0.4
  Binding of serum 37 to linear peptides of protein X1 of SARS-CoV Urbani: 0.7
  Binding of serum 37 to looped/cyclic peptide (PEPSCAN-ELISA): 0.7
  Binding of serum 62 to linear peptides of protein X1 of SARS-CoV Urbani: 0.7
  Binding of serum 62 to looped/cyclic peptide (PEPSCAN-ELISA): 0.7
  Binding of serum London to linear peptides of protein X1 of SARS-CoV Urbani: 0.3
  Binding of serum London to looped/cyclic peptide (PEPSCAN-ELISA): 0.3
  Binding of serum SARS-green to linear peptides of protein X1 of SARS-CoV Urbani: 0.2
  Binding of serum SARS-green to looped/cyclic peptide (PEPSCAN-ELISA): 0.4
  Binding of serum SARS-yellow to linear peptides of protein X1 of SARS-CoV Urbani: 0.3
  Binding of serum SARS-yellow to looped/cyclic peptide (PEPSCAN-ELISA): 0.3
[2]
  Binding of Control Serum Blood-Bank to Looped peptides: 0.7
  Binding of Control serum Blood-bank to linear peptides: 0.8
  Binding of Control serum LUMC to linear peptides: 0.5
  Binding of Control serum LUMC to looped peptides: 0.7
[3]
  Binding of a rabbit serum to linear peptides: 0.1
  Binding of a rabbit serum to looped peptides: 0.5

## ATSRTLSYYKLGASQ
[1]
  Binding of serum 1a to linear peptides of protein M of SARS-CoV Urbani: 0.7
  Binding of serum 1a to looped/cyclic peptides of protein M of SARS-CoV Urbani: 0.8
  Binding of serum 1b to linear peptides of protein M of SARS-CoV Urbani: 0.5
  Binding of serum 1b to looped/cyclic peptides of protein M of SARS-CoV Urbani: 0.2
  Binding of serum 2 to linear peptides of protein M of SARS-CoV Urbani: 0.7
  Binding of serum 2 to looped/cyclic peptides of protein M of SARS-CoV Urbani: 0.6
  Binding of serum 6 to linear peptides of protein M of SARS-CoV Urbani: 0.3
  Binding of serum 6 to looped/cyclic peptides of protein M of SARS-CoV Urbani: 0.8
  Binding of serum 37 to linear peptides of protein M of SARS-CoV Urbani: 0.8
  Binding of serum 37 to looped/cyclic peptides of protein M of SARS-CoV Urbani: 0.6
  Binding of serum 62 to linear peptides of protein M of SARS-CoV Urbani: 0.7
  Binding of serum 62 to looped/cyclic peptides of protein M of SARS-CoV Urbani: 0.5
  Binding of serum London to linear peptides of protein M of SARS-CoV Urbani: 0.3
  Binding of serum London to looped/cyclic peptides of protein M of SARS-CoV Urbani: 0.3
  Binding of serum SARS-green to linear peptides of protein M of SARS-CoV Urbani: 0.2
  Binding of serum SARS-green to looped/cyclic peptides of protein M of SARS-CoV Urbani: 0.3
  Binding of serum SARS-yellow to linear peptides of protein M of SARS-CoV Urbani: 0.1
  Binding of serum SARS-yellow to looped/cyclic peptides of protein M of SARS-CoV Urbani: 0.7
[2]
  Binding of Control Serum Blood-Bank to Looped peptides of the protein M of SARS-CoV Urbani: 0.6
  Binding of Control serum Blood-bank to linear peptides of the protein M of SARS-CoV Urbani: 0.7
  Binding of Control serum LUMC to linear peptides of the protein M of SARS-CoV Urbani: 0.3
  Binding of Control serum LUMC to looped peptides of the protein M of SARS-CoV Urbani: 0.6
[3]
  Rabbit serum linear peptides: 0.6
  Rabbit serum looped peptides: 0.4

## AVYRINWVTGGIAIA
[1]
  Binding of serum 1a to linear peptides of protein M of SARS-CoV Urbani: 0.7
  Binding of serum 1a to looped/cyclic peptides of protein M of SARS-CoV Urbani: 0.8
  Binding of serum 1b to linear peptides of protein M of SARS-CoV Urbani: 0.6
  Binding of serum 1b to looped/cyclic peptides of protein M of SARS-CoV Urbani: 0.4
  Binding of serum 2 to linear peptides of protein M of SARS-CoV Urbani: 0.6
  Binding of serum 2 to looped/cyclic peptides of protein M of SARS-CoV Urbani: 0.6
  Binding of serum 6 to linear peptides of protein M of SARS-CoV Urbani: 0.2
  Binding of serum 6 to looped/cyclic peptides of protein M of SARS-CoV Urbani: 0.6
  Binding of serum 37 to linear peptides of protein M of SARS-CoV Urbani: 0.8
  Binding of serum 37 to looped/cyclic peptides of protein M of SARS-CoV Urbani: 0.7
  Binding of serum 62 to linear peptides of protein M of SARS-CoV Urbani: 0.8
  Binding of serum 62 to looped/cyclic peptides of protein M of SARS-CoV Urbani: 0.7
  Binding of serum London to linear peptides of protein M of SARS-CoV Urbani: 0.3
  Binding of serum London to looped/cyclic peptides of protein M of SARS-CoV Urbani: 0.2
  Binding of serum SARS-green to linear peptides of protein M of SARS-CoV Urbani: 0.3
  Binding of serum SARS-green to looped/cyclic peptides of protein M of SARS-CoV Urbani: 0.4
  Binding of serum SARS-yellow to linear peptides of protein M of SARS-CoV Urbani: 0.1
  Binding of serum SARS-yellow to looped/cyclic peptides of protein M of SARS-CoV Urbani: 0.7
[2]
  Binding of Control Serum Blood-Bank to Looped peptides of the protein M of SARS-CoV Urbani: 0.8
  Binding of Control serum Blood-bank to linear peptides of the protein M of SARS-CoV Urbani: 0.7
  Binding of Control serum LUMC to linear peptides of the protein M of SARS-CoV Urbani: 0.5
  Binding of Control serum LUMC to looped peptides of the protein M of SARS-CoV Urbani: 0.8
[3]
  Rabbit serum linear peptides: 0.4
  Rabbit serum looped peptides: 0.5

## AWIMLLQFAYSNRNR
[1]
  Binding of serum 1a to linear peptides of protein M of SARS-CoV Urbani: 0.7
  Binding of serum 1a to looped/cyclic peptides of protein M of SARS-CoV Urbani: 0.7
  Binding of serum 1b to linear peptides of protein M of SARS-CoV Urbani: 0.6
  Binding of serum 1b to looped/cyclic peptides of protein M of SARS-CoV Urbani: 0.7
  Binding of serum 2 to linear peptides of protein M of SARS-CoV Urbani: 0.5
  Binding of serum 2 to looped/cyclic peptides of protein M of SARS-CoV Urbani: 0.6
  Binding of serum 6 to linear peptides of protein M of SARS-CoV Urbani: 0.5
  Binding of serum 6 to looped/cyclic peptides of protein M of SARS-CoV Urbani: 1.1
  Binding of serum 37 to linear peptides of protein M of SARS-CoV Urbani: 0.4
  Binding of serum 37 to looped/cyclic peptides of protein M of SARS-CoV Urbani: 0.6
  Binding of serum 62 to linear peptides of protein M of SARS-CoV Urbani: 0.4
  Binding of serum 62 to looped/cyclic peptides of protein M of SARS-CoV Urbani: 0.6
  Binding of serum London to linear peptides of protein M of SARS-CoV Urbani: 0.3
  Binding of serum London to looped/cyclic peptides of protein M of SARS-CoV Urbani: 0.6
  Binding of serum SARS-green to linear peptides of protein M of SARS-CoV Urbani: 0.6
  Binding of serum SARS-green to looped/cyclic peptides of protein M of SARS-CoV Urbani: 0.4
  Binding of serum SARS-yellow to linear peptides of protein M of SARS-CoV Urbani: 0.2
  Binding of serum SARS-yellow to looped/cyclic peptides of protein M of SARS-CoV Urbani: 0.7
[2]
  Binding of Control Serum Blood-Bank to Looped peptides of the protein M of SARS-CoV Urbani: 0.7
  Binding of Control serum Blood-bank to linear peptides of the protein M of SARS-CoV Urbani: 0.7
  Binding of Control serum LUMC to linear peptides of the protein M of SARS-CoV Urbani: 0.5
  Binding of Control serum LUMC to looped peptides of the protein M of SARS-CoV Urbani: 0.7
[3]
  Rabbit serum linear peptides: 0.3
  Rabbit serum looped peptides: 0.4
